# Source: patent publication US9617267B2, “Compounds and methods for kinase modulation, and indications therefor” (Plexxikon Inc., priority 2009, dated 2017)
# Key:
# B-Raf [1] = molecular target: B-Raf (Homo sapiens (Human), UniProt P15056); assay: B-Raf kinase activity biochemical assay (AlphaScreen, biotin-MEK1 phosphorylation); conditions: B-Raf
# Method: (§1) Compounds to be tested are diluted in dimethyl sulfoxide to a concentration of 0.1 mM. These are serially diluted 15 μL into 30 μL of dimethyl sulfoxide seven times in 96 well plates for a total of 8 dilution points, and for each dilution point 1 μL is added to a well of an assay plate. […] The reaction is started with addition of 10 μL of 200 μM ATP (i.e. final 100 μM ATP). After incubation of the kinase reaction for 45 minutes at room temperature, 5 μL/well of Stop Solution is added (25 mM Hepes pH 7.5, 100 mM EDTA, 0.01% BSA with donor beads (Streptavidin coated beads, Perkin Elmer), acceptor beads (Protein A coated, Perkin Elmer), and anti phosphor MEK1/2 antibody (CellSignal), each at final concentration 10 μg/mL). The plates are incubated for 3 hours at room temperature and read on Envision reader (Perkin Elmer). […] The signal vs. compound concentration is used to determine the IC50.
# B-Raf [2] = assay: as above; conditions: for Biochemical activity ratio B/V600E: ratio of IC50 B-Raf / B-Raf V600E; for Biochemical activity ratio B/C: ratio of IC50 B-Raf / c-Raf-1
# Method: as §1
# B-Raf V600E = B-Raf V600E (Homo sapiens (Human), UniProt P15056, V600E); assay: B-Raf V600E kinase activity biochemical assay (AlphaScreen, biotin-MEK1 phosphorylation); conditions: for IC50: B-Raf V600E; for Biochemical activity ratio V600E/C: ratio of IC50 B-Raf V600E / c-Raf-1
# B-Raf V600E, sequence (P15056 whole entry V600E): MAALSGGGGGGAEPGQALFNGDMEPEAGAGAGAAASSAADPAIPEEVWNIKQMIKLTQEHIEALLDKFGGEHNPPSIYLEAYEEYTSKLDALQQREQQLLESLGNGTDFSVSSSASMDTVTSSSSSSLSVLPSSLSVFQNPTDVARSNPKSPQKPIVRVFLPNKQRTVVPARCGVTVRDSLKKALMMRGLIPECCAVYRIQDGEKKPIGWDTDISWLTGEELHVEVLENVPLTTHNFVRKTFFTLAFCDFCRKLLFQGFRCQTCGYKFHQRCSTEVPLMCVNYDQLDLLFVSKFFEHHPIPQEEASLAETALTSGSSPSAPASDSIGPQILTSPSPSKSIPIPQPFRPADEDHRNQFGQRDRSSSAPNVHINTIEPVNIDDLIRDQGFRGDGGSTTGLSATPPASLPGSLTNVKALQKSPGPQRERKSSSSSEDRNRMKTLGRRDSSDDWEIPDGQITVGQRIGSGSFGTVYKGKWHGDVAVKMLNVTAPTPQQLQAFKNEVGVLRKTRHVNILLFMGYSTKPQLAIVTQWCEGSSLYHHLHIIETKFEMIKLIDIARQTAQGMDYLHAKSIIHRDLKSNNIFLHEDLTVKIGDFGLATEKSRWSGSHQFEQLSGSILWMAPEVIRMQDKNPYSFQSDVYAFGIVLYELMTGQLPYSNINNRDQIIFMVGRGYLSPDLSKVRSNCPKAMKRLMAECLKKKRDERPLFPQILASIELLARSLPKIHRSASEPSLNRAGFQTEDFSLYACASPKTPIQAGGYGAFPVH
# Method: as §1
# c-Raf-1 = c-Raf-1 (Homo sapiens, UniProt P04049); assay: c-Raf-1 kinase activity biochemical assay (AlphaScreen, biotin-MEK1 phosphorylation)
# c-Raf-1, sequence (P04049 whole entry, looked up): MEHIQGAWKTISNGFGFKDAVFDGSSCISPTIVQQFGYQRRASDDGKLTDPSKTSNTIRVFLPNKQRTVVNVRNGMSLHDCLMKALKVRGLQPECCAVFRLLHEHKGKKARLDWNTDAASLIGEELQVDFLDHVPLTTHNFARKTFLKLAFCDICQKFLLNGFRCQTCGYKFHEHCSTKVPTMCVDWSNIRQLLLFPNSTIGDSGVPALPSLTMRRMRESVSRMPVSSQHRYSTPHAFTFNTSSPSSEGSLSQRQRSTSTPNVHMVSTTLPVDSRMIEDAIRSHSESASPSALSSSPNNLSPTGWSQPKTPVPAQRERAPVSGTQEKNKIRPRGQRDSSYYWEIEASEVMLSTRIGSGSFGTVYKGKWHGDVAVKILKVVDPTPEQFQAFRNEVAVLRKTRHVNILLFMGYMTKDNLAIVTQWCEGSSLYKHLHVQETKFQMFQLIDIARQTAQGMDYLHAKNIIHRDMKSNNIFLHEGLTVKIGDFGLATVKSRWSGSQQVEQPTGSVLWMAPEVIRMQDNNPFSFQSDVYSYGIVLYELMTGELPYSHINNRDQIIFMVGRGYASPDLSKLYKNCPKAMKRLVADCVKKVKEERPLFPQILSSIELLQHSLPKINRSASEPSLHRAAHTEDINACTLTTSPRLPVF
# Method: as §1
# [3] = Relative solubility by turbidity threshold concentration in aqueous buffers (pH 1.5, 4.5, 6.8, 7.4); format: physicochemical; conditions: for turbidity threshold (L, M, H) 1.4: pH 1.4 [sic] (method: SGF pH 1.5); for turbidity threshold (L, M, H) 4.5: pH 4.5 (SIF); for turbidity threshold (L, M, H) 6.8: pH 6.8 (SIF); for turbidity threshold (L, M, H) 7.4: pH 7.4 (HEPES)
# Method: As an indication of relative solubility, the turbidity of compounds in aqueous solutions is assessed. To assess possible compound properties in different physiological compartments, such as stomach, intestine, and blood, a series of aqueous buffers with varying pH is used. Thus each compound is diluted into four different physiologically relevant buffers and solution turbidity is measured by spectrophotometry.
# Compounds are dissolved at a concentration of 25 mM in dimethyl sulfoxide, then serially diluted 1:1 into a 96 well plate, diluting 10 times in pure dimethyl sulfoxide, with the final well of each row a dimethyl sulfoxide blank. In an assay plate, 99 μL of appropriate buffer is added to each well, and 1 μL of each sample dilution is added to the buffer, achieving a range of final total concentrations in aqueous solutions having different pH. The buffers used are Simulated Gastric Fluid (SGF-pH 1.5) 0.5M NaCl, pH 1.5; Simulated Intestinal fluid (SIF-pH 4.5 and pH 6.8) 0.05M NaH2PO4, pH 4.5 and 6.8; and Hepes Buffer (HEPES-pH 7.4) 10 mM HEPES, 150 mM NaCl, pH 7.4. Control compounds pyrene, estriol and propranolol HCl are also assessed. Plates are spun and then mixed for 1 minute, and the absorbance is read using a Tecan Safire II to read wavelengths in the visible range (490, 535, and 650 nm) at four locations per well, reflecting the degree of turbidity present. The average optical density for each wavelength in each well is graphed vs. compound concentration, and the concentration at which the curve crosses a threshold O.D. of 0.01 for each wavelength is reported as the endpoint turbidity assay result. The average of the three wavelengths is used to compare turbidity of compounds. Compounds are considered to have low solubility if the threshold concentration is <31.3 μM, moderate solubility if the threshold concentration is 31.3 μM to 250 μM, and high solubility if the threshold concentration is >250 μm.
# The following table indicates the relative solubility (L=low, M=moderate, H=high) based on turbidity threshold concentration at each pH for exemplary compounds according to the invention as indicated: […]
# CYP2C19 = CYP2C19 (Homo sapiens (Human), UniProt P33261); assay: CYP enzyme inhibition, fluorescent substrate (CEC); conditions: read-out: Cyp IC50 2C19; CYP2C19, substrate CEC
# CYP2C19, sequence (P33261 whole entry): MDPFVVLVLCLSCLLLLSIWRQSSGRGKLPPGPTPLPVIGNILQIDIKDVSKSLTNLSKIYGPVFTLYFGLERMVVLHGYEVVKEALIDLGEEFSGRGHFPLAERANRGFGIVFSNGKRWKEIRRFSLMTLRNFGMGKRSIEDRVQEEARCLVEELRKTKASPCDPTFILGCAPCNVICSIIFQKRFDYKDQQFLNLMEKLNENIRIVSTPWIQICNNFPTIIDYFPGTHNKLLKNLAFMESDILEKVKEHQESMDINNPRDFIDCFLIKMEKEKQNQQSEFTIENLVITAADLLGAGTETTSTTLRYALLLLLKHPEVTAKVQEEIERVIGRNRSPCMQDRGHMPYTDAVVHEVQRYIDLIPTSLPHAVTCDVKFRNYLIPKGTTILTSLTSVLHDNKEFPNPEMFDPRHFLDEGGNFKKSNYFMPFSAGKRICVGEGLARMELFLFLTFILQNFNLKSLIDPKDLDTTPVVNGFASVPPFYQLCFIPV
# Method: CYP (Cytochrome P450) enzymes are the major drug metabolizing enzymes present in the liver. The inhibition of CYP enzyme activity (IC50) for each of CYP1A2, CYP2C19, CYP2C9, CYP2D6, CYP3A4(BFC) and CYP3A4(BQ) is determined for compounds, where inhibition of metabolism of a known substrate leads to a decrease in the fluorescence of the metabolized product. The fluorescence of the product is monitored as a function of compound concentration.
# Compounds are dissolved in dimethyl sulfoxide to a concentration of 100 mM. These are diluted 1 μL into 82 μL of acetonitrile. […] These are then serially diluted 1:1 (160 μL to 160 μL co-factor mix) for a total of 10 points. A 10 μL aliquot of this final mixture is dispensed into 384 well assay plates and incubated for 10 minutes at 37° C. […] Assay plates are incubated at 37° C. […] The signal versus compound concentration is used to determine the IC50. The enzymes and substrates for this assay are obtained from BD Biosciences.
# B-Raf (Homo sapiens (Human), UniProt P15056), sequence (P15056 whole entry): as the sequence (P15056 whole entry V600E) above, with E600V counted along it
IC50 (CYP2C19) [nM],SMILES,IC50 (B-Raf [1]) [µM],Biochemical activity ratio B/V600E (B-Raf [2]),Biochemical activity ratio B/C (B-Raf [2]),IC50 (B-Raf V600E) [µM],Biochemical activity ratio V600E/C (B-Raf V600E),IC50 (c-Raf-1) [µM],"turbidity threshold (L, M, H) 1.4 [3]","turbidity threshold (L, M, H) 4.5 [3]","turbidity threshold (L, M, H) 6.8 [3]","turbidity threshold (L, M, H) 7.4 [3]"
,"O=C(c1c(F)ccc(NS(=O)(=O)c2ccc(C(F)(F)F)cc2)c1F)c1c[nH]c2nccc(NC3CCOCC3)c12 [P-2014, N-{2,4-Difluoro-3-[4-(tetrahydro-pyran-4-ylamino)-1H-pyrrolo[2,3-b]pyridine-3-carbonyl]-phenyl}-4-trifluoromethyl-benzenesulfonamide]",> 0.1,0.1-10,0.1-10,> 0.1,>10,< 0.1,L (low solubility if the threshold concentration is <31.3 μM),L (low solubility if the threshold concentration is <31.3 μM),L (low solubility if the threshold concentration is <31.3 μM),L (low solubility if the threshold concentration is <31.3 μM)
,"COc1ccc(S(=O)(=O)Nc2ccc(F)c(C(=O)c3c[nH]c4ncnc(OC)c34)c2F)cn1 [P-1018, 6-Methoxy-pyridine-3-sulfonic acid [2,4-difluoro-3-(4-methoxy-7H-pyrrolo[2,3-d]pyrimidine-5-carbonyl)-phenyl]-amide]",> 0.1,>10,>10,> 0.1,0.1-10,> 0.1,,,,
,"CCCS(=O)(=O)Nc1ccc(F)c(C(=O)c2c[nH]c3ncnc(O)c23)c1F [P-1022, Propane-1-sulfonic acid [2,4-difluoro-3-(4-hydroxy-7H-pyrrolo[2,3-d]pyrimidine-5-carbonyl)-phenyl]-amide]",> 0.1,0.1-10,0.1-10,> 0.1,0.1-10,< 0.1,,,,
,"N#Cc1ncnc2[nH]cc(C(=O)c3c(F)ccc(NS(=O)(=O)c4ccc(C(F)(F)F)cc4)c3F)c12 [P-1023, N-[3-(4-Cyano-7H-pyrrolo[2,3-d]pyrimidine-5-carbonyl)-2,4-difluoro-phenyl]-4-trifluoromethyl-benzenesulfonamide]",> 0.1,0.1-10,0.1-10,> 0.1,>10,> 0.1,,,,
,"O=C(c1c(F)ccc(NS(=O)(=O)c2ccc(C(F)(F)F)cc2)c1F)c1c[nH]c2ncnc(N3CCOCC3)c12 [P-1017, N-[2,4-Difluoro-3-(4-morpholin-4-yl-7H-pyrrolo[2,3-d]pyrimidine-5-carbonyl)-phenyl]-4-trifluoromethyl-benzenesulfonamide]",> 0.1,0.1-10,0.1-10,> 0.1,>10,> 0.1,,,,
> 10000,"CCCS(=O)(=O)Nc1ccc(F)c(C(=O)c2c[nH]c3nccc(NC4CCOCC4)c23)c1F [P-2013, Propane-1-sulfonic acid {2,4-difluoro-3-[4-(tetrahydro-pyran-4-ylamino)-1H-pyrrolo[2,3-b]pyridine-3-carbonyl]-phenyl}-amide]",,,,< 0.1,,< 0.1,H (high solubility if the threshold concentration is >250 μm),H (high solubility if the threshold concentration is >250 μm),H (high solubility if the threshold concentration is >250 μm),H (high solubility if the threshold concentration is >250 μm)
,"O=C(c1c(F)ccc(NS(=O)(=O)c2ccc(C(F)(F)F)cc2)c1F)c1c[nH]c2ncnc(OC3CCOCC3)c12 [P-1021, N-{2,4-Difluoro-3-[4-(tetrahydro-pyran-4-yloxy)-7H-pyrrolo[2,3-d]pyrimidine-5-carbonyl]-phenyl}-4-trifluoromethyl-benzenesulfonamide]",> 0.1,0.1-10,>10,> 0.1,>10,< 0.1,,,,
,"CCc1ccc(S(=O)(=O)Nc2ccc(F)c(C(=O)c3c[nH]c4ncnc(C)c34)c2F)cc1 [P-1019, N-[2,4-Difluoro-3-(4-methyl-7H-pyrrolo[2,3-d]pyrimidine-5-carbonyl)-phenyl]-4-ethyl-benzenesulfonamide]",> 0.1,0.1-10,0.1-10,> 0.1,0.1-10,> 0.1,,,,
,"O=C(c1c(F)ccc(NS(=O)(=O)c2ccccc2)c1F)c1c[nH]c2nccc(C(F)(F)F)c12 [P-2017, N-[2,4-Difluoro-3-(4-trifluoromethyl-1H-pyrrolo[2,3-b]pyridine-3-carbonyl)-phenyl]-benzenesulfonamide]",> 0.1,0.1-10,>10,> 0.1,>10,< 0.1,L (low solubility if the threshold concentration is <31.3 μM),L (low solubility if the threshold concentration is <31.3 μM),L (low solubility if the threshold concentration is <31.3 μM),M (moderate solubility if the threshold concentration is 31.3 μM to 250 μM)
> 10000,"CCCS(=O)(=O)Nc1ccc(F)c(C(=O)c2c[nH]c3nccc(C(F)(F)F)c23)c1F [P-2015, Propane-1-sulfonic acid [2,4-difluoro-3-(4-trifluoromethyl-1H-pyrrolo[2,3-b]pyridine-3-carbonyl)-phenyl]-amide]",,,,,,< 0.1,M (moderate solubility if the threshold concentration is 31.3 μM to 250 μM),M (moderate solubility if the threshold concentration is 31.3 μM to 250 μM),M (moderate solubility if the threshold concentration is 31.3 μM to 250 μM),M (moderate solubility if the threshold concentration is 31.3 μM to 250 μM)
,"COc1ccc(S(=O)(=O)Nc2ccc(F)c(C(=O)c3c[nH]c4ncnc(C)c34)c2F)cc1F [P-1036, N-[2,4-Difluoro-3-(4-methyl-7H-pyrrolo[2,3-d]pyrimidine-5-carbonyl)-phenyl]-3-fluoro-4-methoxy-benzenesulfonamide]",> 0.1,>10,>10,< 0.1,0.1-10,< 0.1,,,,
